{
  "source": "paper PMC9423655",
  "about": "“Huntington’s disease phenotypes are improved via mTORC1 modulation by small molecule therapy” (PLoS ONE, 2022)",
  "key": {"[1]": {"target": "T1, Sestrin2/GATOR2 interaction (Homo sapiens, UniProt P58004)", "T1 construct": "endogenous in cells; host or cells: Flag-WDR24 293T (HEK293T) cells", "T1 sequence (P58004 1-480)": "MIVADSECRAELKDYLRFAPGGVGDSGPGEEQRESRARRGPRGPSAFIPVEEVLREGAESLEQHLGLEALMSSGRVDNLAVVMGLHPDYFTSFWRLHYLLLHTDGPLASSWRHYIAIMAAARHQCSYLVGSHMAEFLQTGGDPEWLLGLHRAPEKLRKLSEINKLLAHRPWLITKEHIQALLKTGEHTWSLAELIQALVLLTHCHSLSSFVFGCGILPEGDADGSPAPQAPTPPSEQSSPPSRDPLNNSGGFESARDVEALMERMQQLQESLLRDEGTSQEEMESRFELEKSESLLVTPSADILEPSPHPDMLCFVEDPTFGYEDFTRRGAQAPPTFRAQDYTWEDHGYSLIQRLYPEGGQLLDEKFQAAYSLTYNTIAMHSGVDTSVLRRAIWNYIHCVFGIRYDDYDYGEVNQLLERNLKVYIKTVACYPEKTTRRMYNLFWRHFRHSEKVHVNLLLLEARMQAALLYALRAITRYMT", "experiment": "Lysate-based (cell-free) Sestrin2/GATOR2 protein-protein interaction assay", "format": "binding", "settings": "added to immunoprecipitated Sestrin2/GATOR2 complexes from amino acid-starved flag-WDR24 HEK293T cells, 10 minutes", "protocol": "Flag-WDR24 293T cells were washed and placed in amino acid-free RPMI for 50 minutes. Cells were then rinsed once with ice-cold PBS and immediately lysed with Triton lysis buffer. The cell lysates were cleared by centrifugation at 13,200 rpm at 4°C in a microcentrifuge for 10 minutes. The anti-FLAG immunoprecipitations were performed as described above. Immunoprecipitated proteins (IPs) were resuspended in cytosolic buffer (40 mM HEPES pH 7.4, 140 mM KCl, 10 mM NaCl, 2.5 mM MgCl2, 0.1% TritonX-100) containing vehicle, NV-5297 or leucine at the indicated doses for 10 minutes. After compound incubation, IPs were collected by centrifugation, denatured, resolved by SDS-PAGE, and analyzed by immunoblotting.\nNext, Sestrin2/GATOR2 protein-protein interactions in response to NV-5297 were measured using cell-free assays and in vitro. For this, HEK293T cells stably expressing flag-WDR24, a component of GATOR2 [44], were used. The cell-free assays utilized Sestrin2/GATOR2 complexes immunoprecipitated from amino acid-starved cells with an anti-flag antibody."}, "mTORC1 pathway (pS6) [2]": {"test_system": "mTORC1 pathway (pS6)", "experiment": "pS6 immunoblot of tissues after one oral dose in C57BL/6 mice", "format": "in vivo", "settings": "single oral 160 mg/kg", "protocol": "(§1) Specific regions of the brain and heart were homogenized using a Next Advance Bullet Blender Storm in Lysis Buffer (Cell lysis buffer: 1% Triton X-100, 50 mM HEPES pH 7.4, 100 mM sodium chloride, 2 mM EDTA, 10 mM Beta-glycerophosphate, 10 mM Sodium pyrophosphate, and 1 protease inhibitor) at 4°C. Lysates were cleared by centrifugation at 13,200 rpm at 4°C for 10 minutes. Equal amounts of total protein from each sample were denatured and, resolved by SDS-PAGE. Membranes were imaged using the LI-COR imaging system. Proteins levels are normalized to tubulin, actin or GAPDH levels and further normalized to vehicle treated mice for each tissue.\nFig 1 NV-5297 is a leucine analog activating the mTORC1 pathway in the brain and peripheral tissues. (A) NV-5297 chemical structure. Representative immunoblots of phosphorylated S6 (^S240/244pS6) from homogenized tissues from C57BL/6 mice orally dosed once with NV-5297 (160 mg/kg) and sacrificed 1 hour later (B) and quantification of the immunoblots normalized to loading controls and vehicle treated mice (n = 10 per treatment) (C). […]"}, "mTORC1 pathway (pS6) [3]": {"test_system": "mTORC1 pathway (pS6)", "experiment": "Isoprenaline cardiac stress: pS6 immunoblot of striatum and heart", "format": "in vivo", "settings": "N171-82Q mice under isoprenaline cardiac stress, 1 hour after oral dosing 160 mg/kg", "protocol": "as §1\nFig 8 mTORC1 pathway activation following NV-5297 dosing and cardiac stress in the striatum but not heart. Representative immunoblot (left panels) of phosphorylated S6 (^S240/244pS6) and quantification of normalized level (right panels) for homogenized heart (A) and striatum (B) isolated 1 hour after oral dosing with NV-5297 (160 mg/kg) with a saline (n = 10) or isoprenaline (n = 6) implant or treated with vehicle and an isoprenaline implant (n = 6) normalized to loading control levels and further normalized to vehicle treated mice with a saline implant (n = 9). Data are presented as mean ± SEM. *P ≤ 0.05, **P ≤ 0.01, ***P ≤ 0.001 (Mixed-effects model with Sidak’s multiple comparisons test)."}},
  "data": [
    {"smiles": "CC(C)(C[C@H](N)C(=O)O)C(F)(F)F", "note": "[NV-5297, (S)-2-amino-5,5,5-trifluoro-4,4-dimethylpentanoic acid]", "values": [
      {"measurement": "Sestrin2/GATOR2 interaction (GATOR2-associated Sestrin2)", "setting": "[1]", "result": "disrupted the Sestrin2/GATOR2 interaction in a dose-dependent manner"},
      {"measurement": "pS6 in brain regions relative to controls", "setting": "mTORC1 pathway (pS6) [2]; sacrificed 1 hour later", "result": "increased pS6 in all regions sampled"},
      {"measurement": "pS6 in peripheral tissues relative to vehicle", "setting": "mTORC1 pathway (pS6) [2]; tissues collected 1 hour later", "result": "increased pS6"},
      {"measurement": "pS6/S6 ratio in heart", "setting": "mTORC1 pathway (pS6) [3]", "result": "strong trend toward increased ratios"},
      {"measurement": "pS6/S6 ratio in striatum", "setting": "mTORC1 pathway (pS6) [3]", "result": "increased pS6/S6 ratio"}
    ]}
  ]
}
